Measured values taken from US20030077653A1, “Method for the identification of active site protease inactivators” (The University of Georgia Research Foundation, Inc., priority 2000, published 2003).
Read-outs that look alike come from different tables or passages of the source. Starred links: 1 amine or outer side, 2 acyl side, 3 side chain; linkers in the order of their positions; H or OH if unused. Residues, ends and D or L forms follow the SMILES beside them. *: point of attachment. AFC = O=c1cc(C(F)(F)F)c2ccc(N*)cc2o1; Suc = O=C(CCC(=O)[*:2])[*:1]; Cbz = O=C(OCc1ccccc1)*

What was measured:
[1] = tested on: T solium purified cysteine protease; test: Human IgG degradation assay (western blot; Step IV); format: biochemical, Taenia solium; conditions: 18 hrs, 37° C.
Protocol: FIG.6. IgG degradation of heavy chain by purified cysteine protease of Taenia solium. human IgG was incubated for 18 hours with T. solium purified cysteine protease (CP). Incubated tubes were subsequently fractionated by SDS-PAGE under reducing conditions, blotted onto PVDF membrane, and visualized using biotinylated anti-IgG (heavy chain/light chain), biotin-peroxidase conjugated-strepavidin complex and enhanced chemiluminescence. Bands represent heavy chains.
To conduct this assessment, a western blot was performed. IgG digestion was detected by incubating 20 μl of T solium purified enzyme or T solium extract with 1 μg of human IgG (Sigma, St. Louis) in a fmal volume of 100 μl of assay buffer. Exogenous thiol activation was assessed by incubating the assay in the presence or absence of cysteine. The catalytic class of the IgG protease was determined by pre-incubating the following proteinase inhibitors at their active concentrations, with the enzyme: E 64 (10^−6 M, cysteine proteinases), phenylmethylsulfonyl fluoride (PMSF) (10^−3 M, serine proteinases), pepstatin A (10^−6 M, aspartic proteinases), and 1,10 phenanthroline (10^−3 M, metalloproteinases), and the vehicle, Mu-Leu-Tyr-AFC (10^−3 M). After addition of IgG, the assay was incubated overnight (37° C., 18 hrs). […]

[2] = tested on: purified Taenia solium cysteine protease; test: Screen of AFC-linked synthetic substrates for cleavage (Step II); format: biochemical; conditions: pH 4.9, 18 h, 37° C
Protocol: In this step, the most efficacious substrate for detection of the cysteine protease (high Kcat substrate) was determined in vitro along with those substrates which were not well cleaved (low kcat substrates). From this point forth, the following conditions refer to all assays: “assay buffer” refers to 0.4 M Citrate, pH 4.9 (the pH optima of the protease). Incubation time was 18 hours at 37° C. These conditions were determined by our preliminary data to be best for kinetic evaluation of the protease. […] The experiments were conducted in […] Borosilicate mini-culture tubes (Fisher Scientific), and a fluorometer (Turner) was employed for detection of AFC cleavage.
Approximately 1 ug (or a proteolytically detectable amount) of the purified target cysteine protease was incubated individually, with 1 μg of each of the available substrates in 500 μL of assay buffer. During this setup, the substrate was pre-incubated in the assay buffer for a short period of time (20 minutes) in order to reach an equilibrated status before the addition of the protease. Cleavage assessments were based upon the property of the protease to cleave synthetic peptide substrates linked at the C-terminus to 7-Amino-4-Trifluoromethyl Coumarin (AFC) as previously described. AFC linked tripeptides, dipeptides, and monopeptides, (with a variety of permutations at P3-P1) were available from Enzyme Systems Products (Livermore, CA), and were used as the source of the subset. Following incubation of enzyme preparations overnight (18 h, 37 ° C.) with peptide in assay buffer (Citrate, pH 4.9, supplemented with 0.01 M cysteine), free AFC concentrations were measured fluorometrically (excitation […]). The proteolytic cleavage released the AFC group, which was measurable as a free molecule by a standard fluorometer and converted into molar quantities, based upon a previously established standard curve. The simplicity of AFC detection by the fluorometer was a key factor which quickened and simplified the procedures.
In the assay, 1 ug of the purified Taenia cysteine protease was added to a saturating amount of Z-Phe-Arg-AFC (4×10^−5 M) in assay buffer. The experiment was conducted in triplicate and repeated at least 5 times until we were certain that variability in AFC cleavage was not statistically significant.
Vmax was calculated for the cleavage of substrates by the purified target protease and Vmax was calculated for substrates cleaved by the crude mix protease using conventional kinetic modeling calculations already described in the art.

Cathepsin B = Cathepsin B (Homo sapiens, UniProt P07858); test: Differential cleavage (selectivity) test; format: biochemical; conditions: vehicle 4×10^−5 M; pH 6.1, Z-ARR-AFC
Protocol: (§1) In order to perform the assay, the vehicle (for Step VI) or inhibitor (for Step IX) were incubated with the appropriate substrate in the correct assay buffer and allowed to equilibrate. Subsequently, the protease was added, and the assay was allowed to incubate for an appropriate time. The concentrations used in this experiment were as follows: Vehicle was set up at 4×10^−5 M in final assay buffer; Inhibitor was set up at 3×10^−10 M in the final assay buffer. Accordingly, the dosages employed should be the minimal amount of vehicle or inhibitor necessary to induce inhibition. […] Substrates were set up based upon the preferred substrate for cleavage of the particular enzyme.
(§2) Positive controls were set up similarly as described for test controls, except that solvent was added in substitution for the inhibitor or vehicle (in a volume equal to the volume of inhibitor or vehicle addition). All of the inhibitors and vehicles could be dissolved in dimethylsulfoxide (DMSO), and therefore, this was the solvent of choice. Negative controls were set up by adding the inhibitor or vehicle and the preferred substrates in a tube without the protease. All potential non-proteolytic liberation of AFC was therefore controlled for in this tube (a feature which also insured stability of the AFC substrates, since these substrates will freely liberate AFC when unstable).
(§3) All controls were set up in triplicate, and experiments were repeated a minimum of five times.
(§4) Percent inhibition was calculated as: [formula]
(§5) In this preliminary test, we employed the following human-derived enzymes (with indicated mechanistic class): Cathepsin B (cysteine), Cathepsin L (cysteine), Cathepsin H (cysteine), Cathepsin D (aspartic) Trypsin (serine), the purified Taenia solium cysteine protease, and the Taenia solium crude mix. Cathepsin B was prepared in an assay buffer of 10 mM L-cysteine in 0.4 M Citrate buffer, pH 6. 1, using Z-ARR-AFC as the cleavage substrate. Cathepsin L was prepared in an assay buffer of 10 mM L-cysteine in 0.4 M Citrate buffer, pH 5.5, using Z-FR-AFC as the cleavage substrate. Cathepsin H was prepared in an assay buffer of 10 mM L-cysteine in 0.15 M PBS buffer, pH 6.8, using L- R-AFC as the cleavage substrate. Cathepsin D was prepared in an assay buffer of 0.15 M PBS, pH 7.1, using Z-RGFFP-AFC as the cleavage substrate. Trypsin was prepared in an assay buffer of 0.15 M PBS, pH 8.0, supplemented with 100 mM CaCl2 and with Z-R-AFC as the cleavage substrate. Enzyme was incubated so that it was at least 50 times less than the concentration of substrate in order to insure saturating conditions.

Cathepsin D = Cathepsin D (Homo sapiens, UniProt P07339); test: Differential cleavage (selectivity) test; format: biochemical; conditions: vehicle 4×10^−5 M; pH 7.1, Z-RGFFP-AFC
Chain of Cathepsin D (P07339 65-412): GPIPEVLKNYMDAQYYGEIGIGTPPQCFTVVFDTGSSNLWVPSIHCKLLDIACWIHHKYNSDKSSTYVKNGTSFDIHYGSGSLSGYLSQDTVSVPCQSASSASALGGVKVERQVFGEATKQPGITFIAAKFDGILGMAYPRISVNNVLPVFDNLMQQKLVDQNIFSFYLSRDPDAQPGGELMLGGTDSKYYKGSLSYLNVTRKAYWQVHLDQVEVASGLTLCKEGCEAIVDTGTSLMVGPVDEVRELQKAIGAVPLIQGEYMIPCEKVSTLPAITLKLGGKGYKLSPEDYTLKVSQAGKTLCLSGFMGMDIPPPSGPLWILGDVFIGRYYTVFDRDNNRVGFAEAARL
Protocol: as §1, §2, §3, §4, §5

Cathepsin L = Cathepsin L (Homo sapiens, UniProt P07711); test: Differential cleavage (selectivity) test; format: biochemical; conditions: vehicle 4×10^−5 M; pH 5.5, Z-FR-AFC
Chain of Cathepsin L (P07711 114-333): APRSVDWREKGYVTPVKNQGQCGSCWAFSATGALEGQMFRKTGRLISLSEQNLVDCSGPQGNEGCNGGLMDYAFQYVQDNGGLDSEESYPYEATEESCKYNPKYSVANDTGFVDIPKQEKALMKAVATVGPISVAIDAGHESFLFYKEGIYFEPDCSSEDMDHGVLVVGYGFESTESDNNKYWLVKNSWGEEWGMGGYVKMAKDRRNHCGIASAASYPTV
Protocol: as §1, §2, §3, §4, §5

Cathepsin H = biological target: T1, Cathepsin H (Homo sapiens, UniProt P09668); test: Differential cleavage (selectivity) test; format: biochemical; conditions: vehicle 4×10^−5 M; pH 6.8, L-R-AFC
T1 sequence (P09668 98-335): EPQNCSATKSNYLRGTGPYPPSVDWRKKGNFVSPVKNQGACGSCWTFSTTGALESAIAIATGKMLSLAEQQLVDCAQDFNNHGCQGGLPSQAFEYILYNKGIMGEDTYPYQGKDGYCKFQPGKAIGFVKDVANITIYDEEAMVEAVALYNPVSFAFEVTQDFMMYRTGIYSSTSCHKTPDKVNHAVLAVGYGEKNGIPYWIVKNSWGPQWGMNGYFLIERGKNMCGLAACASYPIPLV
Protocol: as §1, §2, §3, §4, §5

Trypsin = test: Differential cleavage (selectivity) test; format: biochemical, human; conditions: vehicle 4×10^−5 M; pH 8.0, Z-R-AFC
Protocol: as §1, §2, §3, §4, §5

Taenia crassiceps cysts [3] = test: Short-term prophylactic protection of BALB/c mice from cysticercosis infection; format: in vivo; conditions: pre-injected two days, 10 T. crassiceps cysts/mouse, dosed daily four weeks, intraperitoneal; vs untreated controls
Protocol: FIG. 8. […] Each treated mouse was pre-injected intraperitoneally with inhibitor for two days. During treatment phase, each treated mouse received 1.48×10^−2 μg/μl of N2 daily for three weeks and every other day during the last week. Injections were carried out in 150 μl of dimethyl sulfoxide for each mouse. Both treated groups and positive controls were challenged intraperitoneally with 10 Taenia crassiceps cysts in 200 μl 0.15M PBS at the time of initial infection. After one month of infection, both groups were euthanized and cysts removed by washing with sterile 0.15M PBS. A minimum of two attached cysts were scored as multilobed (ML). […] (B) Graphically represents the effect of protease inhibitor treatment of BALB/c mice challenged with Taenia crassiceps cysts over a long-term period. Mice were divided into treated and untreated groups (5 mice/group).Each mouse in the treated group was pre-injected intraperitoneally with inhibitor for two days. […] Cysts were then counted by visual inspection. […]
Based upon the premise that the cyst wall cysteine protease may serve a critical finction to the life cycle of the Taenia cyst, we tested our most efficacious inhibitors, LLL-FMK and LLY-FMK (K-Pyr was used as a control), for their abilities to protect mice from cysticercosis infection. […] After one month, the mice were euthanized and the cysts counted. […]

Taenia crassiceps cysts [4] = test: Scanning electron microscopy of surfaces of cysts removed from treated mice; format: in vivo
Text: FIG. 9. Scanning electron microscopy of the surface of cysts removed from untreated mice versus cysts removed from treated mice. Magnifications are identical for both slides in each panel. panel A (4000×). […] No immune cells were seen on cysts removed from untreated mice. Panel B (25,000×). […] Microtriches in untreated cysts can be seen to be visibly longer. Visible anchors were also noted for the untreated cysts group, whereas these anchors were not observed in microtriches from treated cysts.
For example, we hypothesized that the cysteine protease was a key parasitic molecule to allow the cyst to evade the host immune response, by cleaving host antibodies. By inhibiting the Taenia cysteine protease with Z-LLY-FMK, we hypothesized that host immunoglobulin could now bind the parasites, and initiate immunological responses (e.g., complement via IgG2a) which would cause damage to the cyst wall. […] We identified macrophages, neutrophils, fibroblasts, and collagenous deposits on the cyst surfaces from treated mice, in comparison to their absence on cysts from untreated mice. General surface atrophy was also apparent. […] Breaks in the integrity of the cyst surface were also noted for the cysts removed from treated mice. […] Cysts removed from untreated mice were characterized by no immune cells, intact and longer microtriches, and homogeneity of the cyst surface.

Compound	inhibition of cleavage of human IgG [1]	cleavage as substrate (Vmax) [2]	Percent inhibition of Cathepsin B (cysteine) (Cathepsin B) [%]	Percent inhibition of Cathepsin D (aspartic) (Cathepsin D) [%]	Percent inhibition of Cathepsin L (cysteine) (Cathepsin L) [%]	Percent inhibition of Cathepsin H (cysteine) (Cathepsin H) [%]	Percent inhibition of Trypsin (serine) (Trypsin) [%]	also measured
CC(C)C[C@H](NC(=O)[C@H]1O[C@@H]1C(=O)O)C(=O)NCCCCN=C(N)N [E64]	Inhibition was noted	–	–	–	–	–	–	–
CC(C)CC(NC(=O)CCC(=O)O)C(=O)NC(Cc1ccc(O)cc1)C(=O)Nc1ccc2c(C(F)(F)F)cc(=O)oc2c1 (stereo not drawn) [Suc-Leu-Tyr-AFC] (Suc-Leu-Tyr-{AFC}; configuration not given here)	ability to inhibit	–	–	–	–	–	–	–
CC(C)C[C@H](NC(=O)OCc1ccccc1)C(=O)N[C@@H](CC(C)C)C(=O)N[C@@H](CC(C)C)C(=O)Nc1ccc2c(C(F)(F)F)cc(=O)oc2c1 [Z-LLL-AFC, Z-Leu- Leu-Leu-AFC] (Cbz-Leu-Leu-Leu-{AFC})	–	noncleavable	0	0	0	0	0	–
CC(C)C[C@H](NC(=O)OCc1ccccc1)C(=O)N[C@@H](CC(C)C)C(=O)N[C@@H](Cc1ccc(O)cc1)C(=O)Nc1ccc2c(C(F)(F)F)cc(=O)oc2c1 [Z-LLY-AFC, Z-Leu-Leu-Tyr-AFC] (Cbz-Leu-Leu-Tyr-{AFC})	–	noncleavable	0	0	0	0	0	–
Leu-Phe-Ketoamide-Pyridyl [K-Pyr]	–	–	–	–	–	–	–	% Prophylactic protection of BALB/c mice (Taenia crassiceps cysts [3]): 40%; Immune cells observed by SEM on cyst surfaces (Taenia crassiceps cysts [4]): None; Immune cells observed by SEM on cyst surfaces (Taenia crassiceps cysts [4]; listed as K- Pyr): neither adherent immune cells nor damaged tegunent
